Source: US10335409B2 (priority 2012, dated 2019)

What was measured:
Type in all cases: cell-based, hepatitis C virus
[1] = system: genotype 1a (H77) stable HCV replicon in Huh-7-derived cells; assay: Stable subgenomic HCV replicon EC50, genotype 1a (Renilla luciferase); details: Hepatitis C virus, stable replicon genotype 1a, 72 h, read-out: EC50 1A RLUC
Method: (§1) Antiviral potency (EC50) was determined in both stable subgenomic HCV replicon cell lines and transient-transfected HCV replicon cells. The term half maximal effective concentration (EC50) refers to the concentration of a drug which induces a response halfway between the baseline and maximum after the exposure time specified below.
(§2) Stable subgenomic HCV replicons for genotype 1a, 1b, 2a, 3a, and 4a were established in Huh-7-derived cells as described by Lohmann et al (Lohmann V, Korner F, Koch J, et al Replication of subgenomic hepatitis C virus RNAs in a hepatoma cell line. Science 1999; 285:119-3) Each stable cell line contains a bicistronic HCV replicon that encodes a humanized Renilla luciferase (hRLuc) reporter gene fused to a selectable neomycin-resistance gene, followed by an EMCV IRES and the NS3-NS5B coding region of HCV. […] Luciferase activity was measured as a marker for intracellular HCV replication levels.
(§3) The genotype 1a stable replicon was derived from the H77 HCV strain and contained adaptive mutations P1496L and S2204I. The genotype 1b stable replicon was derived from the Con1 HCV strain and contained adaptive mutations E1202G, T1280I and K1846T. […] The genotype 3a stable replicon was derived from the S52 HCV strain and contained adaptive mutations P1121L, A1198T and S2210I (equivalent to S2204I in genotype 1). The genotype 4a stable replicon was derived from the ED43 HCV strain and contained adaptive mutations Q1691R and S2204I. All replicon cell lines were propagated in Huh-7-derived cells and maintained in Dulbecco's modified Eagle's Medium (DMEM) supplemented with 10% fetal bovine serum (FBS) and 0.5 mg/mL G418.
(§4) To perform EC50 assays, cells from each HCV replicon were dispensed into 384-well plates. Compounds were dissolved in DMSO at a concentration of 10 mM and diluted in DMSO using an automated pipetting instrument. Three-fold serially diluted compounds were directly added to the cells using an automated instrument. […] Seventy-two hours later, cells were lysed and Renilla luciferase activity were quantified as recommended by the manufacturer (Promega-Madison, Wis.). Non-linear regression was performed to calculate EC50 values.

[2] = system: genotype 1b (Con1) stable HCV replicon in Huh-7-derived cells; assay: Stable subgenomic HCV replicon EC50, genotype 1b (Renilla luciferase); details: Hepatitis C virus, stable replicon genotype 1b, 72 h, read-out: EC50 1B RLUC
Method: as §1, §2, §3, §4

[3] = system: genotype 2a (JFH-1) stable HCV replicon in Huh-7-derived cells; assay: Stable subgenomic HCV replicon EC50, genotype 2a (Renilla luciferase); details: Hepatitis C virus, stable replicon genotype 2a, 72 h, read-out: EC50 2A RLUC
Method: as §1, §2, §3, §4

[4] = system: genotype 3a (S52) stable HCV replicon in Huh-7-derived cells; assay: Stable subgenomic HCV replicon EC50, genotype 3a (Renilla luciferase); details: Hepatitis C virus, 72 h, read-out: EC50 3A RLUC
Method: as §1, §2, §3, §4

[5] = system: genotype 4a (ED43) stable HCV replicon in Huh-7-derived cells; assay: Stable subgenomic HCV replicon EC50, genotype 4a (Renilla luciferase); details: Hepatitis C virus, 72 h, read-out: EC50 4A RLUC
Method: as §1, §2, §3, §4

[6] = system: genotype 1a (H77) wild type transient HCV replicon in Huh-7-derived cells; assay: Transient-transfected HCV replicon EC50, genotype 1a wild type; details: Hepatitis C virus, 72 h, transient-transfected replicon genotype 1a wild type, read-out: EC50 1A WT
[7] = system: genotype 1a NS3/4a protease inhibitor resistant variant R155K transient HCV replicon in Huh-7-derived cells; assay: Transient-transfected HCV replicon EC50, genotype 1a R155K; details: Hepatitis C virus, 72 h, read-out: EC50 1A R155K, transient-transfected replicon genotype 1a R155K resistant variant, 72 h
[8] = system: genotype 1b (Con1) wild type transient HCV replicon in Huh-7-derived cells; assay: Transient-transfected HCV replicon EC50, genotype 1b wild type; details: Hepatitis C virus, 72 h, transient-transfected replicon genotype 1b wild type, read-out: EC50 1B WT
[9] = system: genotype 1b NS3/4a protease inhibitor resistant variant D168A transient HCV replicon in Huh-7-derived cells; assay: Transient-transfected HCV replicon EC50, genotype 1b D168A; details: Hepatitis C virus, 72 h, read-out: EC50 1B D168A, transient-transfected replicon genotype 1b D168A resistant variant, 72 h

SMILES	EC50 [1] [nM]	EC50 [2] [nM]	EC50 [3] [nM]	EC50 [4] [nM]	EC50 [5] [nM]	EC50 [6] [nM]	EC50 [7] [nM]	EC50 [8] [nM]	EC50 [9] [nM]
COc1ccc2nc3c(nc2c1)O[C@H]1CN(C(=O)[C@H](C(C)(C)C)NC(=O)O[C@@H]2C[C@H]2CCCCC3)[C@H](C(=O)N[C@]2(C(=O)NS(=O)(=O)C3CC3)C[C@H]2CC(F)F)[C@@H]1C [Example 24, (1aR,5S,8S,9S,10R,22aR)-5-tert-butyl-N-[(1R,2S)-1-[(cyclopropylsulfonoyl)carbamoyl]-2-(2,2-difluoroethyl)cyclopropyl]-14-methoxy-9-methyl-3,6-dioxo-1,1a,3,4,5,6,9,10,18,19,20,21,22,22a-tetradecahydro-8H-7,10-methanocyclopropa[18,19][1,10,3,6]dioxadiazacyclononadecino[11,12-b]quinoxaline-8-carboxamide]	12	7.5	20	663	9.2	9.3	49	3.2	284
COc1ccc2nc3c(nc2c1)O[C@H]1CN(C(=O)[C@H](C(C)(C)C)NC(=O)O[C@@H]2C[C@H]2CCCCC3)[C@H](C(=O)N[C@]2(C(=O)NS(=O)(=O)C3(C)CC3)C[C@H]2CCF)[C@@H]1C [Example 23, (1aR,5S,8S,9S,10R,22aR)-5-tert-butyl-N-[(1R,2S)-2-(2-fluoroethyl)-1-{[(1-methylcyclopropyl)sulfonyl]carbamoyl}cyclopropyl]-14-methoxy-9-methyl-3,6-dioxo-1,1a,3,4,5,6,9,10,18,19,20,21,22,22a-tetradecahydro-8H-7,10-methanocyclopropa[18,19][1,10,3,6]dioxadiazacyclononadecino[11,12-b]quinoxaline-8-carboxamide]	13	7.5	23	587	9.9	9.5	36	3.6	173
CC[C@@H]1[C@@H]2CN(C(=O)[C@H](C(C)(C)C)NC(=O)O[C@@H]3C[C@H]3CCCCCc3nc4ccc(OC)cc4nc3O2)[C@@H]1C(=O)N[C@]1(C(=O)NS(=O)(=O)C2CC2)C[C@H]1C(F)F [Example 2, (1aR,5S,8S,9S,10R,22aR)-5-tert-butyl-N-[(1R,2R)-1-[(cyclopropylsulfonyl)carbamoyl]-2-(difluoromethyl)cyclopropyl]-9-ethyl-14-methoxy-3,6-dioxo-1,1a,3,4,5,6,9,10,18,19,20,21,22,22a-tetradecahydro-8H-7,10-methanocyclopropa[18,19][1,10,3,6]dioxadiazacyclononadecino[11,12-b]quinoxaline-8-carboxamide]	4	3.1	3.9	77	2.7	2.4	7	1	33
COc1ccc2nc3c(nc2c1)O[C@H]1CN(C(=O)[C@H](C(C)(C)C)NC(=O)O[C@@H]2C[C@H]2CCCCC3)[C@H](C(=O)N[C@]2(C(=O)NS(=O)(=O)C3(C)CC3)C[C@H]2CC(F)F)[C@@H]1C [Example 25, (1aR,5S,8S,9S,10R,22aR)-5-tert-butyl-N-[(1R,2S)-2-(2,2-difluoroethyl)-1-{[(1-methylcyclopropyl)sulfonyl]carbamoyl}cyclopropyl]-14-methoxy-9-methyl-3,6-dioxo-1,1a,3,4,5,6,9,10,18,19,20,21,22,22a-tetradecahydro-8H-7,10-methanocyclopropa[18,19][1,10,3,6]dioxadiazacyclononadecino[11,12-b]quinoxaline-8-carboxamide]	8.8	6.3	13	409	7.1	4.4	17	3.6	116
